Like-named read-outs stand apart in the source and are kept apart here.
Tests used:
[1] = target: T1, CIB1 and αIIb interaction (CIB1-GST : F-αIIb peptide) (Homo sapiens, UniProt Q99828); test: FP assay, 1536-well qHTS format (primary and confirmatory screen); assay type: binding; conditions: for Curve Class (confirmatory screen) / CONFIRMATORY SCREEN Curve Class: qHTS curve class
T1 construct: made in house; host or cells: BL-21 plus RIL cells (E. coli)
T1 sequence (Q99828 1-191): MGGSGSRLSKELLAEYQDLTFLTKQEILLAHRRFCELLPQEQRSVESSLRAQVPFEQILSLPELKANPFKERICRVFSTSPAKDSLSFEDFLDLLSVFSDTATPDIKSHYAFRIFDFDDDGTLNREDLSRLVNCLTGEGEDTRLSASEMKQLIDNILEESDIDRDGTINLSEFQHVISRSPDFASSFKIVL

[2] = target: T2, GST-CIB1 : F-scrambled peptide (Homo sapiens, UniProt Q99828); test: FP scrambled-peptide counter screen, 1536-well format; assay type: binding; conditions: for Curve Class (counterscreen) / COUNTERSCREEN Curve Class: qHTS curve class; for IC50: read-out: IC50 [μM] (counterscreen)
T2 construct: made in house; host or cells: BL-21 plus RIL cells (E. coli)
T2 sequence (Q99828 1-191): T1 sequence (Q99828 1-191)

[3] = confirmatory screen, negative sign = inhibitory curve
[4] = confirmatory screen, read-out: IC50 [μM] (confirmatory screen)
[5] = qHTS FP screen hits, Table S2, negative = inhibition
[6] = qHTS FP screen hits, Table S2, one class per curve where COUNT > 1, negative sign = inhibitory curve
[7] = qHTS FP screen hits, Table S2, read-out: IC50
[8] = counterscreen, negative sign = inhibitory curve
[9] = qHTS primary screen hits, Table S2, negative = inhibition
[10] = qHTS primary screen hits, Table S2, negative sign = inhibitory curve, several classes where COUNT > 1
[11] = qHTS primary screen hits, Table S2, read-out: IC50
[12] = Table S3, confirmatory screen, a negative sign marks inhibitory curves
[13] = Table S3, confirmatory screen, negative = inhibition
[14] = Table S3, counterscreen, YES/NO call
[15] = Table S3, counterscreen, a negative sign marks inhibitory curves
[16] = Table S3, counterscreen, negative = inhibition
[17] = qHTS primary screen hits, Table S2, negative sign = inhibitory curve
[18] = Table S3, confirmatory screen, YES/NO call
[19] = Table S3, confirmatory screen, read-out: IC50 [μM] (confirmatory screen)

Structure (SMILES) | Efficacy (%) (confirmatory screen) ([1]; confirmatory screen) | Confirm? (confirmatory screen) ([1]; confirmatory screen, YES/NO) | Curve Class (confirmatory screen) [1, 3] | IC50 [1, 4] | Efficacy (%) [1, 5] | IC50 [1, 7] | Efficacy (%) (counterscreen) ([2]; counterscreen) | Curve Class (counterscreen) [2, 8] | IC50 ([2]; counterscreen) | Efficacy (%) [1, 9] | Curve Class [1, 10] | IC50 [1, 11] | Curve Class (confirmatory screen) [1, 12] | Efficacy (%) (confirmatory screen) [1, 13] | Curve Class (counterscreen) [2, 15] | Efficacy (%) (counterscreen) [2, 16] | IC50 ([2]; Table S3, counterscreen) | further results
N#Cc1ccc(Nc2nc(-c3ccc(O)cc3O)cs2)cc1C(F)(F)F [NCGC00386816-01] | -72% | YES | -2.2 | 50.1 µM | -71% | 35.5 µM | -65% | -2.2 | 28.2 µM | – | – | – | – | – | – | – | – | Curve Class [1, 6]: -2.2
C[C@H]1COC2=C1C(=O)C(=O)c1c2ccc2c1CCCC2(C)C [NCGC00163650-02] | – | – | – | – | – | – | – | – | – | -26% | -2.4 | 30.4 µM | – | – | – | – | – | CONFIRMATORY SCREEN Efficacy (%) ([1]; confirmatory screen): 0%; CONFIRMATORY SCREEN Curve Class ([1]; confirmatory screen): 4; COUNTERSCREEN Efficacy (%) ([2]; counterscreen): -18%; COUNTERSCREEN Curve Class ([2]; counterscreen): 4
CN(C)CCCn1cc(C2=C(c3c[nH]c4ccccc34)C(=O)NC2=O)c2ccccc21 [NCGC00024760-07] | -63% | YES | -2.2 | 44.7 µM | -53% | 39.8 µM | -54% | -2.2 | 35.5 µM | – | – | – | – | – | – | – | – | Curve Class [1, 6]: -2.2
NC[C@@H](O)c1ccc(O)c(O)c1.O=C(O)C(O)C(O)C(=O)O [NCGC00094737-04] | -31% | YES | -3 | 44.7 µM | – | – | 82% | 3 | 100 µM | – | – | – | – | – | – | – | – | Confirm? (counterscreen) ([2]; counterscreen, YES/NO): YES
Cl.Nc1cc(C(F)(F)F)ccc1S [NCGC00262926-01] | -117% | YES | -1.1 | 22.4 µM | – | – | -35% | -1.4 | 12.6 µM | -84% | -1.1 | 28.2 µM | – | – | – | – | – | Confirm? (counterscreen) ([2]; counterscreen, YES/NO): YES
Nc1nc2c(s1)C(c1ccccc1)CC(=O)N2 (stereo not shown) [NCGC00422009-03] | – | – | – | – | – | – | – | – | – | -83% | -2.2 | 79.4 µM | 4 | -35% | -2.4 | -45% | 39.8 µM | Confirm? (counterscreen) [2, 14]: YES
CNc1nc2c(s1)C(c1c(F)cccc1Cl)CC(=O)N2.O=C(O)C(F)(F)F (stereo not shown) [NCGC00488265-02] | – | – | – | – | – | – | – | – | – | -65% | -2.2 | 56.2 µM | 4 | -12% | 4 | 0% | – | –
Cc1cc(NS(=O)(=O)c2ccc(NC(=O)Cc3ccc(F)c(Cl)c3)cc2)no1.O=C(O)C(F)(F)F [NCGC00244873-01] | – | – | – | – | -25% | 10 µM | – | – | – | – | – | – | – | – | – | – | – | CONFIRMATORY SCREEN Efficacy (%) ([1]; confirmatory screen): -48%; CONFIRMATORY SCREEN Curve Class ([1]; confirmatory screen): 4; COUNTERSCREEN Efficacy (%) ([2]; counterscreen): -17%; COUNTERSCREEN Curve Class ([2]; counterscreen): 4
O=C(O)C(F)(F)F.O=C1CCCC2=C1C(c1ccn[nH]1)N=C(Nc1nc3ccccc3o1)N2 (stereo not shown) [NCGC00229725-01] | – | – | – | – | – | – | – | – | – | -32% | – | 25.1 µM | 4 | -29% | 4 | -32% | – | Curve Class [1, 17]: -2.2
O=C1C[C@@](c2ccc(N3CCOCC3)cc2)(c2ccsc2)NC(=O)C1Sc1ccccc1Cl (stereo partly shown) [NCGC00420796-01] | -47% | YES | -2.2 | 20 µM | – | – | -34% | -1.4 | 6.3 µM | – | – | – | – | – | – | – | – | –
Cc1ccc(C(=O)NC(c2ccco2)c2cc(Cl)c3cccnc3c2O)cc1 (stereo not shown) [NCGC00188372-01] | – | – | – | – | – | – | – | – | – | -23% | – | 31.6 µM | 4 | -11% | – | 42% | 89.1 µM | Curve Class [1, 17]: -1.4
CNc1oc(-c2c[nH]c3ccccc23)nc1C#N.O=C(O)C(F)(F)F [NCGC00262511-01] | – | – | – | – | – | – | – | – | – | -19% | – | 15.8 µM | -3 | -55% | -2.4 | -53% | 28.2 µM | Confirm? (confirmatory screen) [1, 18]: YES; IC50 [1, 19]: 35.5 µM; Curve Class [1, 17]: -1.4
COC(=O)c1scc2c(O)cc(C(F)(F)F)nc12 [NCGC00168006-01] | – | – | – | – | – | – | – | – | – | -56% | -2.2 | 50.1 µM | -3 | -58% | -3 | -67% | 79.4 µM | Confirm? (confirmatory screen) [1, 18]: YES; IC50 [1, 19]: 70.8 µM
Cn1cc(-c2[nH]c3cc(NC(=O)[C@H](N)C4CCCCC4)cc4c3c2C=NNC4=O)cn1 [NCGC00263132-02] | – | – | – | – | – | – | – | – | – | -24% | -1.4 | 4.2 µM | -2.2 | -85% | -2.1 | -107% | 79.4 µM | Confirm? (confirmatory screen) [1, 18]: YES; IC50 [1, 19]: 50.1 µM
CCOC(=O)c1cc(-c2ccco2)nc2c1c(C)nn2CCC#N.O=C(O)C(F)(F)F [NCGC00037529-03] | -61% | YES | -2.2 | 50.1 µM | -27% | 39.8 µM | -56% | -2.4 | 56.2 µM | – | – | – | – | – | – | – | – | –
Cc1c2c(=O)n(-c3ccccc3)[nH]c2cc(=O)n1-c1cccnc1.O=C(O)C(F)(F)F [NCGC00248472-01] | – | – | – | – | -31% | 39.8 µM | – | – | – | – | – | – | 4 | -23% | -2.2 | -60% | 39.8 µM | Confirm? (counterscreen) [2, 14]: YES
CCCCCCCCn1cc(CC(N)=O)c2cc(-c3cccc(C)c3)ccc21.O=C(O)C(F)(F)F [NCGC00348156-02] | – | – | – | – | -74% | 50.1 µM | – | – | – | – | – | – | -2.4 | -95% | -2.1 | -121% | 39.8 µM | Confirm? (confirmatory screen) [1, 18]: YES; IC50 [1, 19]: 44.7 µM

— paper PMC11249646, “Small-Molecule Disruptors of the Interaction between Calcium- and Integrin-Binding Protein 1 and Integrin αIIbβ3 as Novel Antiplatelet Agents” (ACS Pharmacology & Translational Science, 2024)
